{
  "source": "paper PMC11345752",
  "about": "“In Situ Biofilm Affinity-Based Protein Profiling Identifies the Streptococcal Hydrolase GbpB as the Target of a Carolacton-Inspired Chemical Probe” (Journal of the American Chemical Society, 2024)",
  "target": "T1, FolD (Escherichia coli, UniProt P24186)",
  "T1 construct": "purified E. coli FolD",
  "test": "dehydrogenase assay with purified FolD",
  "format": "biochemical",
  "data": [
    {"smiles": "COC(CC(=O)O)C(C)C(=O)C(C)/C=C(\\C)C1OC(=O)C(O)C(O)C=CC(C)CCCC1C", "note": "(stereo not shown) [carolacton]", "values": [
      {"measurement": "IC50", "result": 94, "unit": "nM"}
    ]}
  ]
}
